#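 Values below derive from 48-hour exposures of cells grown in 96-well plates, with endpoints linearly interpolated between the two concentrations bracketing the appropriate inhibition level. The concentration for 50% growth inhibition is given as GI50. TGI: total growth inhibition.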
# Columns and labels:
# Assay in all cases: growth of human tumour cells (NCI), 48 h
# MCF7 breast = test system: MCF7 breast
# HOP-62 NSCLC = test system: HOP-62 NSCLC
# OVCAR-5 ovarian = test system: OVCAR-5 ovarian
# SF-539 CNS = test system: SF-539 CNS
# A498 renal = test system: A498 renal
# M14 melanoma = test system: M14 melanoma
# HOP-92 NSCLC = test system: HOP-92 NSCLC
# NCI/ADR-RES ovarian = test system: NCI/ADR-RES ovarian
# ACHN renal = test system: ACHN renal
# RXF 393 renal = test system: RXF 393 renal
# HCT-15 colon = test system: HCT-15 colon
# RPMI-8226 leukemia = test system: RPMI-8226 leukemia
# SR leukemia = test system: SR leukemia
# OVCAR-4 ovarian = test system: OVCAR-4 ovarian
# UO-31 renal = test system: UO-31 renal
# SNB-19 CNS = test system: SNB-19 CNS
# MDA-MB-231 breast = test system: MDA-MB-231 breast
# T-47D breast = test system: T-47D breast
# HT29 colon = test system: HT29 colon
# EKVX NSCLC = test system: EKVX NSCLC
# SF-268 CNS = test system: SF-268 CNS
# MALME-3M melanoma = test system: MALME-3M melanoma
# OVCAR-3 ovarian = test system: OVCAR-3 ovarian
# DU-145 prostate = test system: DU-145 prostate
# SW-620 colon = test system: SW-620 colon
# UACC-257 melanoma = test system: UACC-257 melanoma
# SK-MEL-5 melanoma = test system: SK-MEL-5 melanoma
# IGROV1 ovarian = test system: IGROV1 ovarian
# UACC-62 melanoma = test system: UACC-62 melanoma
# A549 NSCLC = test system: A549 NSCLC
# NCI-H23 lung = test system: NCI-H23 lung
# NCI-H522 lung = test system: NCI-H522 lung
# NCI-H460 lung = test system: NCI-H460 lung
# HS 578T breast = test system: HS 578T breast
# HL-60(TB) leukemia = test system: HL-60(TB) leukemia
# SNB-75 CNS = test system: SNB-75 CNS
# TK-10 renal = test system: TK-10 renal
# CAKI-1 renal = test system: CAKI-1 renal
# OVCAR-8 ovarian = test system: OVCAR-8 ovarian
# KM12 colon = test system: KM12 colon
# 786-0 renal = test system: 786-0 renal
# MOLT-4 leukemia = test system: MOLT-4 leukemia
# SK-MEL-28 melanoma = test system: SK-MEL-28 melanoma
# CCRF-CEM leukemia = test system: CCRF-CEM leukemia
# SN12C renal = test system: SN12C renal
# MDA-MB-435 = test system: MDA-MB-435
# SF-295 CNS = test system: SF-295 CNS
# K-562 leukemia = test system: K-562 leukemia
# U251 CNS = test system: U251 CNS
# PC-3 prostate = test system: PC-3 prostate
# LOX IMVI melanoma = test system: LOX IMVI melanoma
# HCT-116 colon = test system: HCT-116 colon
# NCI-H226 lung = test system: NCI-H226 lung
# BT-549 breast = test system: BT-549 breast
# SK-MEL-2 melanoma = test system: SK-MEL-2 melanoma
# COLO 205 colon = test system: COLO 205 colon
# SK-OV-3 ovarian = test system: SK-OV-3 ovarian
structure (smiles),measurement,setting,value
CN(C)Cc1cc(C(=O)/C=C/c2ccc(F)cc2)cc(CN(C)C)c1O,TGI,MCF7 breast,42.4 µM
same,TGI,HOP-62 NSCLC,58.5 µM
same,TGI,OVCAR-5 ovarian,> 100 µM
same,TGI,SF-539 CNS,44.4 µM
same,TGI,A498 renal,94.8 µM
same,TGI,M14 melanoma,27.4 µM
same,TGI,HOP-92 NSCLC,97.5 µM
same,TGI,NCI/ADR-RES ovarian,86.2 µM
same,TGI,ACHN renal,78.3 µM
same,TGI,RXF 393 renal,46.9 µM
same,TGI,HCT-15 colon,30.3 µM
same,TGI,RPMI-8226 leukemia,> 100 µM
same,TGI,SR leukemia,71.4 µM
same,TGI,OVCAR-4 ovarian,> 100 µM
same,TGI,UO-31 renal,38.9 µM
same,TGI,SNB-19 CNS,> 100 µM
same,TGI,MDA-MB-231 breast,> 100 µM
same,TGI,T-47D breast,46.3 µM
same,TGI,HT29 colon,> 100 µM
same,TGI,EKVX NSCLC,> 100 µM
same,TGI,SF-268 CNS,63.9 µM
same,TGI,MALME-3M melanoma,36.5 µM
same,TGI,OVCAR-3 ovarian,50.9 µM
same,TGI,DU-145 prostate,> 100 µM
same,TGI,SW-620 colon,75.5 µM
same,TGI,UACC-257 melanoma,31 µM
same,TGI,SK-MEL-5 melanoma,35.5 µM
same,TGI,IGROV1 ovarian,> 100 µM
same,TGI,UACC-62 melanoma,8.98 µM
same,TGI,A549 NSCLC,> 100 µM
same,TGI,NCI-H23 lung,> 100 µM
same,TGI,NCI-H522 lung,31.7 µM
same,TGI,NCI-H460 lung,22.3 µM
same,TGI,HS 578T breast,86.9 µM
same,TGI,HL-60(TB) leukemia,35.4 µM
same,TGI,SNB-75 CNS,87.2 µM
same,TGI,TK-10 renal,> 100 µM
same,TGI,CAKI-1 renal,67.3 µM
same,TGI,OVCAR-8 ovarian,83.9 µM
same,TGI,KM12 colon,48.9 µM
same,TGI,786-0 renal,> 100 µM
same,TGI,MOLT-4 leukemia,53.8 µM
same,TGI,SK-MEL-28 melanoma,> 100 µM
same,TGI,CCRF-CEM leukemia,78 µM
same,TGI,SN12C renal,> 100 µM
same,TGI,MDA-MB-435,38.9 µM
same,TGI,SF-295 CNS,31.6 µM
same,TGI,K-562 leukemia,62.5 µM
same,TGI,U251 CNS,> 100 µM
same,TGI,PC-3 prostate,> 100 µM
same,TGI,LOX IMVI melanoma,20.7 µM
same,TGI,HCT-116 colon,27 µM
same,TGI,NCI-H226 lung,> 100 µM
COc1ccc(C#CC2=C(c3cc(OC)c(OC)c(OC)c3)C(=O)OC2)cc1,GI50,MCF7 breast,0.948 µM
same,TGI,MCF7 breast,> 50 µM
same,GI50,OVCAR-5 ovarian,> 50 µM
same,TGI,OVCAR-5 ovarian,> 50 µM
same,GI50,SF-539 CNS,1.29 µM
same,TGI,SF-539 CNS,3.26 µM
same,GI50,A498 renal,8.21 µM
same,TGI,A498 renal,30.1 µM
same,GI50,M14 melanoma,> 50 µM
same,TGI,M14 melanoma,> 50 µM
same,GI50,NCI/ADR-RES ovarian,5.82 µM
same,TGI,NCI/ADR-RES ovarian,27.9 µM
same,GI50,ACHN renal,5.89 µM
same,TGI,ACHN renal,25.3 µM
same,GI50,RXF 393 renal,6.77 µM
same,TGI,RXF 393 renal,26.7 µM
same,GI50,HCT-15 colon,1.99 µM
same,TGI,HCT-15 colon,> 50 µM
same,GI50,RPMI-8226 leukemia,1.21 µM
same,TGI,RPMI-8226 leukemia,3.56 µM
same,GI50,SR leukemia,2.09 µM
same,TGI,SR leukemia,> 50 µM
same,GI50,OVCAR-4 ovarian,1.51 µM
same,TGI,OVCAR-4 ovarian,> 50 µM
same,GI50,UO-31 renal,18.9 µM
same,TGI,UO-31 renal,> 50 µM
same,GI50,SNB-19 CNS,5.98 µM
same,TGI,SNB-19 CNS,> 50 µM
same,GI50,MDA-MB-231 breast,32 µM
same,TGI,MDA-MB-231 breast,> 50 µM
same,GI50,HT29 colon,2.66 µM
same,TGI,HT29 colon,> 50 µM
same,GI50,EKVX NSCLC,13.7 µM
same,TGI,EKVX NSCLC,41.8 µM
same,GI50,SF-268 CNS,2.23 µM
same,TGI,SF-268 CNS,> 50 µM
same,GI50,OVCAR-3 ovarian,1.59 µM
same,TGI,OVCAR-3 ovarian,10.3 µM
same,GI50,BT-549 breast,2.13 µM
same,TGI,BT-549 breast,15.7 µM
same,GI50,UACC-257 melanoma,13 µM
same,TGI,UACC-257 melanoma,> 50 µM
same,GI50,SK-MEL-5 melanoma,2.07 µM
same,TGI,SK-MEL-5 melanoma,11.9 µM
same,GI50,IGROV1 ovarian,13.9 µM
same,TGI,IGROV1 ovarian,> 50 µM
same,GI50,UACC-62 melanoma,5.23 µM
same,TGI,UACC-62 melanoma,18.4 µM
same,GI50,A549 NSCLC,14.3 µM
same,TGI,A549 NSCLC,38.8 µM
same,GI50,SK-MEL-2 melanoma,42.5 µM
same,TGI,SK-MEL-2 melanoma,> 50 µM
same,GI50,NCI-H23 lung,5.77 µM
same,TGI,NCI-H23 lung,17.3 µM
same,GI50,NCI-H522 lung,8.6 µM
same,TGI,NCI-H522 lung,> 50 µM
same,GI50,NCI-H460 lung,6.65 µM
same,TGI,NCI-H460 lung,> 50 µM
same,GI50,HS 578T breast,13.1 µM
same,TGI,HS 578T breast,> 50 µM
same,GI50,HL-60(TB) leukemia,4.48 µM
same,TGI,HL-60(TB) leukemia,> 50 µM
same,GI50,SNB-75 CNS,1.33 µM
same,TGI,SNB-75 CNS,> 50 µM
same,GI50,TK-10 renal,1.77 µM
same,TGI,TK-10 renal,> 50 µM
same,GI50,CAKI-1 renal,1.18 µM
same,TGI,CAKI-1 renal,2.99 µM
same,GI50,OVCAR-8 ovarian,3.23 µM
same,TGI,OVCAR-8 ovarian,22.5 µM
same,GI50,KM12 colon,1.63 µM
same,TGI,KM12 colon,27.4 µM
same,GI50,786-0 renal,4.94 µM
same,TGI,786-0 renal,> 50 µM
same,GI50,MOLT-4 leukemia,1.1 µM
same,TGI,MOLT-4 leukemia,> 50 µM
same,GI50,SK-MEL-28 melanoma,9.28 µM
same,TGI,SK-MEL-28 melanoma,> 50 µM
same,GI50,CCRF-CEM leukemia,1.03 µM
same,TGI,CCRF-CEM leukemia,> 50 µM
same,GI50,COLO 205 colon,4.15 µM
same,TGI,COLO 205 colon,> 50 µM
same,GI50,MDA-MB-435,1.49 µM
same,TGI,MDA-MB-435,7.82 µM
same,GI50,SF-295 CNS,1.75 µM
same,TGI,SF-295 CNS,43.5 µM
same,GI50,K-562 leukemia,2.11 µM
same,TGI,K-562 leukemia,> 50 µM
same,GI50,U251 CNS,1.64 µM
same,TGI,U251 CNS,6.74 µM
same,GI50,PC-3 prostate,2.95 µM
same,TGI,PC-3 prostate,> 50 µM
same,GI50,HCT-116 colon,1.8 µM
same,TGI,HCT-116 colon,> 50 µM
same,GI50,NCI-H226 lung,7.88 µM
same,TGI,NCI-H226 lung,27.1 µM
O=S(=O)(O)c1ccccc1N=Nc1ccc(N=Nc2c(O)ccc3ccccc23)c(S(=O)(=O)O)c1,TGI,HOP-62 NSCLC,> 100 µM
same,TGI,OVCAR-5 ovarian,> 100 µM
same,TGI,M14 melanoma,> 100 µM
same,TGI,HOP-92 NSCLC,> 100 µM
same,TGI,NCI/ADR-RES ovarian,> 100 µM
same,TGI,ACHN renal,> 100 µM
same,TGI,RXF 393 renal,> 100 µM
same,TGI,HCT-15 colon,> 100 µM
same,TGI,RPMI-8226 leukemia,> 100 µM
same,TGI,OVCAR-4 ovarian,> 100 µM
same,TGI,UO-31 renal,> 100 µM
same,TGI,SNB-19 CNS,> 100 µM
same,TGI,MDA-MB-231 breast,> 100 µM
same,TGI,T-47D breast,> 100 µM
same,TGI,HT29 colon,> 100 µM
same,TGI,EKVX NSCLC,> 100 µM
same,TGI,SF-268 CNS,> 100 µM
same,TGI,MALME-3M melanoma,> 100 µM
same,TGI,OVCAR-3 ovarian,> 100 µM
same,TGI,BT-549 breast,> 100 µM
same,TGI,DU-145 prostate,> 100 µM
same,TGI,SW-620 colon,> 100 µM
same,TGI,UACC-257 melanoma,> 100 µM
same,TGI,SK-MEL-5 melanoma,> 100 µM
same,TGI,IGROV1 ovarian,> 100 µM
same,TGI,UACC-62 melanoma,> 100 µM
same,TGI,A549 NSCLC,> 100 µM
same,TGI,SK-MEL-2 melanoma,> 100 µM
same,TGI,NCI-H23 lung,> 100 µM
same,TGI,NCI-H522 lung,> 100 µM
same,TGI,SK-OV-3 ovarian,> 100 µM
same,TGI,HS 578T breast,> 100 µM
same,TGI,SNB-75 CNS,> 100 µM
same,TGI,TK-10 renal,> 100 µM
same,TGI,CAKI-1 renal,> 100 µM
same,TGI,OVCAR-8 ovarian,> 100 µM
same,TGI,KM12 colon,> 100 µM
same,TGI,786-0 renal,> 100 µM
same,TGI,MOLT-4 leukemia,> 100 µM
same,TGI,SK-MEL-28 melanoma,> 100 µM
same,TGI,CCRF-CEM leukemia,> 100 µM
same,TGI,COLO 205 colon,> 100 µM
same,TGI,SN12C renal,> 100 µM
same,TGI,MDA-MB-435,> 100 µM
same,TGI,SF-295 CNS,> 100 µM
same,TGI,K-562 leukemia,> 100 µM
same,TGI,U251 CNS,> 100 µM
same,TGI,PC-3 prostate,> 100 µM
same,TGI,HCT-116 colon,> 100 µM
same,TGI,NCI-H226 lung,> 100 µM

# Reference: PubChem BioAssay (NCI)
